Experiments:
TkArkI [1] = molecular target: T1, TkArkI (Thermococcus kodakarensis, UniProt Q5JDQ4); test: X-ray crystallography, […] Å; LC-MS of bound ligand; conditions: co-purified from E. coli; putative ATP-binding pocket
T1 construct: gene TK2051; full length, codon-optimised synthetic gene in pE-SUMO-TEV, E. coli; His6-SUMO tag cleaved by Ulp1; residues 1-216 described in structure

TkArkI [2] = molecular target: T1, TkArkI; test: LC-MS of ligands extracted from purified protein; assay type: binding; conditions: co-purified from E. coli

T1 sequence (Q5JDQ4 entry or part of it): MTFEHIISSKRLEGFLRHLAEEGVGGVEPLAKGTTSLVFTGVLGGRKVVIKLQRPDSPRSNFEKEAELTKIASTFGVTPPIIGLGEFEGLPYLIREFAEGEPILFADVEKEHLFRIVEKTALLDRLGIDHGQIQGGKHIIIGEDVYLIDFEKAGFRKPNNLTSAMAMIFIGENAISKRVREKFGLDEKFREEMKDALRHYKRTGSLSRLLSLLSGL

Compound	X-ray crystallography, 1.8 Å; LC-MS of bound ligand (TkArkI [1])	LC-MS of ligands extracted from purified protein (TkArkI [2])
Nc1nc2c(ncn2[C@@H]2O[C@H](CO)[C@@H](O)[C@H]2O)c(=O)[nH]1 [guanosine]	we observed a clear electron density for guanosine in the cleft of the two lobes	–
Nc1nc2c(ncn2[C@H]2C[C@H](O)[C@@H](CO)O2)c(=O)[nH]1 [deoxyguanosine]	–	We confirmed guanosine (and deoxyguanosine) as a ligand that tightly binds to TkArkI
